Assay [1] relates to L3.6 pl orthotopic pancreatic tumors. In words: Distribution and penetration of intravenously injected 100 nm nanoparticles. Format: in vivo, mice. Conditions: i.v. injected 100 nm nanoparticles. As for the experimental part: The inventors then assessed the effect of losartan on blood vessel perfusion and the intratumoral distribution of i.v. injected nanoparticles in mice with orthotopic pancreatic tumors (L3.6 pl).
A total volume of 10 μl at a concentration of 3.6×10^13 nanoparticles/ml was injected via the tail vein. Twenty-four hrs later 50 μl of FITC-lectin was injected to identify functional vessels. Five min after the lectin-injection tumors were resected, fixed in paraformaldehyde and embedded in OCT. Tumors were then sectioned before confocal imaging and analysis. The extent of nanosphere distribution was determined by measuring the fraction of pixels brighter than the background signal. Nanosphere penetration was determined by drawing contours around perfused vessels and recording the fraction of pixels positive for nanospheres in each contour. Contours extended out to 30 μm for each perfused vessel. Using a previously described algorithm (Tong R T, et al. (2004) Cancer Res 64:3731-3736), the inventors fit the plot of nanosphere fraction and distance away from the vessel to an exponential and obtained a relative penetration depth of nanospheres from each vessel.

The subject of assay [2] is HSTS26T tumors. In words: Vascular density in tumors. Conditions: in vivo.
Assay [3] relates to AK4.4 tumors. Kind of assay: Solid stress (tumor opening technique). Also on record: species or system mice. Conditions: mouse, in vivo.
Assay [4] deals with tumors. Kind of assay: Solid stress after a panel of ARBs. Format: in vivo. Conditions: 40 mg/kg losartan, 3.2 mg/kg candesartan, 32 mg/kg valsartan. As for the experimental part: Solid stress levels in tumors after angiotensin inhibition using the ARBs losartan, candesartan, and valsartan are shown. Doses were chosen based on their relative doses in patients for hypertension indications (40 mg/kg losartan, 3.2 mg/kg candesartan, 32 mg/kg valsartan). […] Animal numbers n=6-7. Statistical tests were corrected for multiple comparisons using the Holm-Bonferroni method.
The mechanism responsible for the increase in tumor vessel perfusion by losartan was investigated. Desmoplasia, high stromal cell and matrix density, is a major contributor to the solid stress accumulation that compresses vessels (Stylianopoulos T, et al., Growth-induced mechanical stress in murine and human tumors: causes, consequences and remedies. under review. 2012). Since angiotensin inhibitors reduce matrix production in tumors (Diop-Frimpong B, et al., Proc Natl Acad Sci USA. 2011; 108(7): 2909-14), it was hypothesized that they decompress vessels and increase perfusion by decreasing solid stress. Collagen levels were used as a metric of matrix production as described in Diop-Frimpong et al., Proc Nall Acad Sci USA. […] Moreover, losartan decreased collagen I concentration, measured based on staining intensity, in E0771 and AK4.4 tumors (FIGS. 24B-24C). Of note, dense collagen seemed to colocalize with low-perfusion areas (FIG. 24C). Next, solid stress in these tumors was measured using recently established technique described in Stylianopoulos T, et al., Growth-induced mechanical stress in murine and human tumors: causes, consequences and remedies. under review. 2012. […]
Solid stress: Solid stress was measured using the tumor opening technique as described previously (Stylianopoulos T, et al., Growth-induced mechanical stress in murine and human tumors: causes, consequences and remedies. under review. 2012). […] Subsequently, each tumor was excised, washed with Hanks' Balanced Salt Solution (HBSS) and its three dimensions were measured. […] Afterwards, the opening resulting from the cut was measured at the middle of the cut at the surface of the tumor. […]

In assay [5] the test system is E0771 tumors. In words: Mathematical analysis of perfused vessel network (multiphoton microscopy). Format: in vivo, mice.
Assay [6] has as its system E0771 tumors. In words: Tissue oxygenation by phosphorescence quenching microscopy. Format: in vivo, mice. Conditions: versus control tumors that become more hypoxic with time.
Method: Oxygenation was then studied using phosphorescence quenching microscopy.
An oxygen-sensitive porphyrin, Oxyphor R2 (Oxygen Enterprises) was injected retro-orbitally 12 hrs prior to imaging, and was reinjected immediately prior to imaging along with 2MDa FITC-dextran (Sigma-Aldrich) for functional vascular tracing. A mosaic image of the tumor was collected, and oxygen was then measured in an evenly spaced 12×12 grid at four depths (60, 120, 180, and 240 μm) in the tumor. At each point in the grid, the phosphorescence lifetime of the probe was measured after each of several repeated brief intense pulses of 1020 nm laser light, and these lifetime measurements were combined. A two-component model was used to calculate the oxygen tension from each lifetime measurement, accounting for binding and quenching of the probe by both oxygen and proteins. The grid was then overlayed on the mosaic images to make an oxygen map.
The test system of assay [7] is 4T1 breast tumors. Kind of assay: Breast tumor growth and survival studies. Type of assay: in vivo, mice. From the text: In FIG. 35B, the quantification of tumor growth rates, based on the time to reach double the initial volume, is shown.
In FIG. 35C, the animal survival following the initiation of treatment is shown. […] Statistical tests were corrected for multiple comparisons using the Holm-Bonferroni method.
Breast tumor growth and survival studies: Mice bearing orthotopic E0771 or 4T1 breast tumors were split into treatment groups, time-matched for time after implantation and size-matched for tumor volume at this time (110-111 mm^3 in E0771, in 4T1). […] The primary tumors were then measured every 2 days, beginning on day 0, using calipers. Tumor growth was quantified using the time for each to reach double its initial volume Animal survival was quantified based on time of death after initiation of treatment or time to reach excessive tumor burden (>1000 mm^3).

As to `CCCCc1nc(Cl)c(CO)n1Cc1ccc(-c2ccccc2-c2nn[nH]n2)cc1` [losartan], the “nanoparticle content in tumors vs control” value in assay [1] was “two-fold increase”. The “tumor growth or vascular density” value in assay [2] is listed as “did not affect”. Besides, the solid stress entry in assay [3] is reported as “reduces solid stress”; in assay [4], “reduce solid stress to a similar degree”. For the same compound, the “fractal dimension of vessel network” value in assay [5] (from a typical 1.89 in tumors toward 2.0 of normal capillary beds) is reported as “increases”. Besides, the “maximum distance drugs and oxygen must travel to reach tumor cells” value in assay [5] (pre- and post-treatment (days 2-5)) is recorded as “decreases”. Also, in assay [6], the tissue oxygenation entry is reported as “maintains the level of oxygenation”. In assay [7] (agent given alone (losartan 40 mg/kg daily or doxorubicin 2 mg/kg every three days)), the tumor growth rate result is “no significant effect”. In addition, the survival entry in assay [7] (combination of losartan and doxorubicin) was “improved survival”; in assay [7] (monotherapy) it was “did not shorten survival”. Besides, in assay [7] (losartan in combination with doxorubicin), the tumor growth result is “significantly delayed”.

The values are drawn from patent US20130287688A1, “NOVEL COMPOSITIONS AND USES OF ANTI-HYPERTENSION AGENTS FOR CANCER THERAPY” (XTUIT PHARMACEUTICALS, INC., priority 2010, published 2013).
